Measured values: the supplement of paper PMC10307832

Key:
Test in all cases: relative viability (nuclei count vs DMSO), 5 days (fraction); higher = more cells survive
NCI-H1651 = system: NCI-H1651
Procedure, shortened: (§1)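 Relative viability was taken as the ratio of nuclei in treated wells to nuclei in vehicle wells. Lung cancer cell lines in 1536-well plates received compounds by pin tool one day after seeding, either one drug alone or a fixed anchor-drug dose plus five library-drug doses (not always all listed) in √10 steps. Nuclei were counted on 4× images after 5 days of treatment, and values are medians of duplicate plates.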

NCI-H1944 = system: NCI-H1944
Procedure, shortened: as §1

NCI-H1648 = system: NCI-H1648
Procedure, shortened: as §1

NCI-H650 = system: NCI-H650
Procedure, shortened: as §1

NCI-H520 = system: NCI-H520
Procedure, shortened: as §1

IA-LM = system: IA-LM
Procedure, shortened: as §1

RERF-LC-KJ = system: RERF-LC-KJ
Procedure, shortened: as §1

NCI-H838 = system: NCI-H838
Procedure, shortened: as §1

For `CCN(CC)CCCCNc1ncc2cc(-c3cc(OC)cc(OC)c3)c(NC(=O)NC(C)(C)C)nc2n1` + O=C(CCCCCCC(=O)Nc1ccccc1)NO [Vorinostat] (partner 1 µM), the relative viability (NCI-H1651; first compound 0.01 µM) was 0.541, the relative viability (NCI-H1651; first compound 0.03162 µM) was 0.626 and the relative viability (NCI-H1651; first compound 0.1 µM) was 0.582. For the same compound, the relative viability (NCI-H1651; first compound 0.3162 µM) was 0.674, the relative viability (NCI-H1651; first compound 1 µM) was 0.475 and the relative viability (NCI-H1944; first compound 0.01 µM) was 0.536. It also gave a relative viability (NCI-H1944; first compound 0.03162 µM) of 0.676, a relative viability (NCI-H1944; first compound 0.1 µM) of 0.596 and a relative viability (NCI-H1944; first compound 0.3162 µM) of 0.576. It also gave a relative viability (NCI-H1944; first compound 1 µM) of 0.521, a relative viability (NCI-H1648; first compound 0.01 µM) of 0.48 and a relative viability (NCI-H1648; first compound 0.03162 µM) of 0.352. For the same compound, the relative viability (NCI-H1648; first compound 0.1 µM) was 0.666, the relative viability (NCI-H1648; first compound 0.3162 µM) was 0.602 and the relative viability (NCI-H1648; first compound 1 µM) was 0.327. The relative viability (NCI-H650; first compound 0.01 µM) was 0.349, the relative viability (NCI-H650; first compound 0.03162 µM) was 0.433 and the relative viability (NCI-H650; first compound 0.1 µM) was 0.498. The relative viability (NCI-H650; first compound 0.3162 µM) was 0.525, the relative viability (NCI-H650; first compound 1 µM) was 0.422 and the relative viability (NCI-H520; first compound 0.01 µM) was 0.783. The relative viability (NCI-H520; first compound 0.03162 µM) was 0.731, the relative viability (NCI-H520; first compound 0.1 µM) was 0.673 and the relative viability (NCI-H520; first compound 0.3162 µM) was 0.633. It also gave a relative viability (NCI-H520; first compound 1 µM) of 0.273, a relative viability (IA-LM; first compound 0.01 µM) of 0.963 and a relative viability (IA-LM; first compound 0.03162 µM) of 0.836. It also gave a relative viability (IA-LM; first compound 0.1 µM) of 0.852, a relative viability (IA-LM; first compound 0.3162 µM) of 1.26 and a relative viability (IA-LM; first compound 1 µM) of 0.979. For the same compound, the relative viability (RERF-LC-KJ; first compound 0.01 µM) was 0.748, the relative viability (RERF-LC-KJ; first compound 0.03162 µM) was 0.71 and the relative viability (RERF-LC-KJ; first compound 0.1 µM) was 0.764. For the same compound, the relative viability (RERF-LC-KJ; first compound 0.3162 µM) was 0.794, the relative viability (RERF-LC-KJ; first compound 1 µM) was 0.661 and the relative viability (NCI-H838; first compound 0.01 µM) was 0.669. The relative viability (NCI-H838; first compound 0.03162 µM) was 0.732, the relative viability (NCI-H838; first compound 0.1 µM) was 0.779 and the relative viability (NCI-H838; first compound 0.3162 µM) was 0.69. It also gave a relative viability (NCI-H838; first compound 1 µM) of 0.592.

For `O=c1cc(-c2cccc3c2Sc2ccccc2S3)oc(N2CCOCC2)c1` + O=C(CCCCCCC(=O)Nc1ccccc1)NO [Vorinostat] (partner 1 µM), the relative viability (NCI-H1651; first compound 0.08 µM) was 0.585, the relative viability (NCI-H1651; first compound 0.253 µM) was 0.638 and the relative viability (NCI-H1651; first compound 0.8 µM) was 0.571. The relative viability (NCI-H1651; first compound 2.53 µM) was 0.519, the relative viability (NCI-H1651; first compound 8 µM) was 0.578 and the relative viability (NCI-H1944; first compound 0.08 µM) was 0.58. The relative viability (NCI-H1944; first compound 0.253 µM) was 0.586, the relative viability (NCI-H1944; first compound 0.8 µM) was 0.513 and the relative viability (NCI-H1944; first compound 2.53 µM) was 0.544. It also gave a relative viability (NCI-H1944; first compound 8 µM) of 0.596, a relative viability (NCI-H1648; first compound 0.253 µM) of 0.468 and a relative viability (NCI-H1648; first compound 0.8 µM) of 0.65. The relative viability (NCI-H1648; first compound 8 µM) was 0.457, the relative viability (NCI-H650; first compound 0.08 µM) was 0.473 and the relative viability (NCI-H650; first compound 0.253 µM) was 0.478. For the same compound, the relative viability (NCI-H650; first compound 0.8 µM) was 0.393, the relative viability (NCI-H650; first compound 2.53 µM) was 0.345 and the relative viability (NCI-H650; first compound 8 µM) was 0.458. It also gave a relative viability (NCI-H520; first compound 0.08 µM) of 0.704, a relative viability (NCI-H520; first compound 0.253 µM) of 0.856 and a relative viability (NCI-H520; first compound 0.8 µM) of 0.741. It also gave a relative viability (NCI-H520; first compound 2.53 µM) of 0.787, a relative viability (NCI-H520; first compound 8 µM) of 0.648 and a relative viability (IA-LM; first compound 0.253 µM) of 1.31. For the same compound, the relative viability (IA-LM; first compound 0.8 µM) was 0.966, the relative viability (IA-LM; first compound 2.53 µM) was 0.863 and the relative viability (IA-LM; first compound 8 µM) was 1.08. The relative viability (RERF-LC-KJ; first compound 0.08 µM) was 0.558, the relative viability (RERF-LC-KJ; first compound 0.253 µM) was 0.64 and the relative viability (RERF-LC-KJ; first compound 0.8 µM) was 0.713. For the same compound, the relative viability (RERF-LC-KJ; first compound 2.53 µM) was 0.655, the relative viability (RERF-LC-KJ; first compound 8 µM) was 0.666 and the relative viability (NCI-H838; first compound 0.08 µM) was 0.746. It also gave a relative viability (NCI-H838; first compound 0.253 µM) of 0.739, a relative viability (NCI-H838; first compound 0.8 µM) of 0.831 and a relative viability (NCI-H838; first compound 2.53 µM) of 0.636. For the same compound, the relative viability (NCI-H838; first compound 8 µM) was 0.535.

For `COc1nc(C)cnc1NS(=O)(=O)c1cccnc1-c1ccc(-c2nnco2)cc1` [Zibotentan] + CC(=O)Nc1cccc(-n2c(=O)n(C3CC3)c(=O)c3c(Nc4ccc(I)cc4F)n(C)c(=O)c(C)c32)c1 [Trametinib] (partner 0.02 µM), the relative viability (NCI-H1651; first compound 0.08 µM) was 0.907, the relative viability (NCI-H1651; first compound 0.253 µM) was 0.794 and the relative viability (NCI-H1651; first compound 0.8 µM) was 0.832. For the same compound, the relative viability (NCI-H1651; first compound 2.53 µM) was 0.803, the relative viability (NCI-H1944; first compound 0.08 µM) was 0.461 and the relative viability (NCI-H1944; first compound 0.253 µM) was 0.383. For the same compound, the relative viability (NCI-H1944; first compound 0.8 µM) was 0.399, the relative viability (NCI-H1944; first compound 2.53 µM) was 0.437 and the relative viability (NCI-H1648; first compound 0.08 µM) was 0.49. It also gave a relative viability (NCI-H1648; first compound 0.253 µM) of 0.529, a relative viability (NCI-H1648; first compound 0.8 µM) of 0.442 and a relative viability (NCI-H1648; first compound 2.53 µM) of 0.604. The relative viability (NCI-H650; first compound 0.08 µM) was 1.06, the relative viability (NCI-H650; first compound 0.253 µM) was 1.04 and the relative viability (NCI-H650; first compound 0.8 µM) was 0.967. It also gave a relative viability (NCI-H650; first compound 2.53 µM) of 0.844, a relative viability (NCI-H520; first compound 0.08 µM) of 0.803 and a relative viability (NCI-H520; first compound 0.253 µM) of 0.704. The relative viability (NCI-H520; first compound 0.8 µM) was 0.631, the relative viability (NCI-H520; first compound 2.53 µM) was 0.79 and the relative viability (RERF-LC-KJ; first compound 0.08 µM) was 0.96. The relative viability (RERF-LC-KJ; first compound 0.253 µM) was 0.842, the relative viability (RERF-LC-KJ; first compound 0.8 µM) was 0.804 and the relative viability (RERF-LC-KJ; first compound 2.53 µM) was 0.888. The relative viability (NCI-H838; first compound 0.08 µM) was 0.525, the relative viability (NCI-H838; first compound 0.253 µM) was 0.454 and the relative viability (NCI-H838; first compound 0.8 µM) was 0.487. The relative viability (NCI-H838; first compound 2.53 µM) was 0.508.
